In patent publication US4740505A, “Pyridazinyloxy (or thio) phenyl phosphates” (priority 1985, dated 1988):
Like-named read-outs stand apart in the source and are kept apart here.

What was measured:
Tetranychus urticae = test: Effectiveness on Tetranychus urticae (rating of effects on kidney bean seedlings); format: in vivo; details: 500 ppm, 20 ml, rating based on percent decrease; for Rating of effect Day-2: 2nd day after treatment; for Rating of effect Day-7: 7th day after treatment
Experimental: Effectiveness on Tetranychus urticae
Each of the compounds listed in the following table is processed into an emulsifiable concentrate in accordance with the formulation of Example 6. The emulsifiable concentrate is diluted with water (Dyne®, a spreading agent produced by Takeda Chemical Ind. Ltd., as diluted 3,000-fold) to prepare a 500 ppm aqueous solution. Ten female adult of Tetranychus urticae are put into each kidney been seedling raised in a jiffy pot (6 cm in diameter), and left in a glass house at 28° C. for 24 hours. Each pot is taken out of the glass house; 20 ml of the aqueous solution as prepared above is spread over each kidney bean seedling. The jiffy pots are laid in the glass house again. Larvae and adult which are alive on the leaves are counted at the 2nd and 7th days after the spreading treatment. The test is repeated two times. The degrees are determined on the basis of percent decrease.

Spodoptera litura = test: Effectiveness on Spodoptera litura (mortality of 3rd instar larvae on sprayed soybean leaves); format: in vivo
Experimental: Effectiveness of Spondoptera litura
Each of the test compounds listed in the following table is processed into an emulsifiable concentrate in accordance with the formulation of Example 6. The emulsifiable concentrate is diluted with water (Dyne®, a spreading agent produced by Takeda Chemical Ind. Ltd., as diluted 3,000-fold) to prepare a 100 ppm aqueous solution.
Using a spray gun (nozzle pressure of 1 kg/cm^2 gauge), 20 ml of the aqueous 100 ppm solution is sprayed over soybean seedlings in a spraying chamber (on 10th day after germination) which have been raised in jiffy pots (6 cm in diameter). Two main leaves are respectively cut off from the seedlings 2 hours and 6 days after the spraying. Each of the leaves is put into an ice cream cup (diameter: 6 cm, depth: 4 cm), and 10 larvae of Spodoptera litura at the 3rd instar are put into each of the cups. The cups are left in a room at 25° C.; after 48 hours, dead larvae are counted. The test is repeated two times. The results are shown in terms of mortality (%) in Table 6. [formula]
The following compounds are used for controls.
The same compounds are used for controls also in the following Test Examples.

[1] = Toxicological test: oral acute toxicity in mice; set-up: species or system mice (ddY-SLC strained male); details: mouse, in vivo, five-week aged ddY-SLC male mice
[2] = 100 ppm spray, leaves cut 6 days after spraying, dead larvae counted after 48 hours, 25° C., read-out: Mortality 6th day after spraying
[3] = 48 h, read-out: Mortality 2 hours after spraying

| SMILES | Rating of effect Day-2 (Tetranychus urticae) | Rating of effect Day-7 (Tetranychus urticae) | mortality at 100 ppm (Spodoptera litura; [2]) [%] | mortality at 100 ppm (Spodoptera litura; [3]) [%] | LD50 [1] [mg/kg] |
| --- | --- | --- | --- | --- | --- |
| CCCSP(=O)(OCC)Oc1cccc(Oc2ccc(Cl)nn2)c1 (centres unmarked) [compound 18] | 3 (≥90) | 3 (≥90) | 100 | 100 | > 300 |
| CCCSP(=S)(OCC)Oc1ccc(Oc2ccc(Cl)nn2)cc1 (centres unmarked) [Compound No. 3] | 3 (≥90) | 3 (≥90) | 90 | 100 | ~300 |
| CCCSP(=S)(OCC)Oc1ccccc1Oc1ccc(OC)nn1 (centres unmarked) [Compound No. 40] | 3 (≥90) | 3 (≥90) | 100 | 100 | > 300 |
| CCCSP(=S)(OCC)Oc1ccccc1Oc1ccc(Br)nn1 (centres unmarked) [compound 25] | 3 (≥90) | 3 (≥90) | 100 | 100 | > 300 |
| CCCSP(=O)(OCC)Oc1ccccc1Oc1ccc(Br)nn1 (centres unmarked) [compound 24] | 3 (≥90) | 3 (≥90) | 100 | 100 | ~300 |
| CCCSP(=S)(OCC)Oc1ccccc1Oc1ccc(C)nn1 (centres unmarked) [compound 38] | 3 (≥90) | 3 (≥90) | 100 | 100 | > 300 |
| CCCSP(=S)(OCC)Oc1ccccc1Oc1ccc(SCC)nn1 (centres unmarked) [compound 42] | 3 (≥90) | 3 (≥90) | 100 | 100 | > 300 |
| CCCSP(=O)(OCC)Oc1ccccc1Sc1ccc(Br)nn1 (centres unmarked) [compound 26] | 3 (≥90) | 3 (≥90) | 95 | 100 | ~300 |
| CCCSP(=O)(OCC)Oc1ccc(Sc2ccc(Cl)nn2)cc1 (centres unmarked) [Compound No. 4] | 3 (≥90) | 3 (≥90) | 95 | 100 | > 300 |
| CCCSP(=O)(OCC)Oc1ccccc1Oc1ccc(SCC)nn1 (centres unmarked) [compound 41] | 3 (≥90) | 3 (≥90) | 100 | 100 | ~300 |
